Assay results from publication PMC10583824, “The rational design of ARUK2007145, a dual inhibitor of the α and γ isoforms of the lipid kinase phosphatidylinositol 5-phosphate 4-kinase (PI5P4K)” (RSC Medicinal Chemistry, 2023).
Values after ≈ are worked out from the molar mass of the structure shown.

Assays:
[1] = Turbidimetric aqueous solubility; assay type: physicochemical; settings: pH 7.4, turbidimetric
Description: (§1) ADMET experimental methods […]
Turbidimetric aqueous solubility: analysis was performed by Cyprotex Discovery. Compound in DMSO at 10 mM was serially diluted to solutions of 0.1, 0.3, 1 and 3 mM in DMSO, then further diluted 1 in 100 in buffer (0.01 M PBS, pH 7.4, 1% DMSO final). 7 replicate wells of each dilution were equilibrated for 2 hours at 37 °C before absorbance is measured at 620 nm. The solubility is estimated from the concentration of test compound that produces an increase in absorbance above vehicle control (1% DMSO in buffer). […]

MDCK-MDR1 cells = assay: MDR1-MDCK bi-directional permeability and efflux; settings: MDCK-MDR1 cells; A2B; 10 µM
Description: (§2) MDR1-MDCK Permeability (bi-directional): was performed by Cyprotex Discovery. Briefly, compounds were administered at 10 µM (1% DMSO final) to the apical or basolateral side of a confluent monolayer of MDR1-MDCK cells, then incubated at 37 °C for 60 minutes before appearance on the opposite side of the monolayer was determined LC-MS/MS. The efflux ratio (ER) is calculated from the ratio of B-A to A-B permeabilities.

PI5P4Kα [2] = molecular target: T1, PI5P4Kα (Homo sapiens, UniProt P48426); settings: ADP-Glo; footnote a: inconsistent replicates, value shown is upper limit
T1 sequence (P48426 1-406): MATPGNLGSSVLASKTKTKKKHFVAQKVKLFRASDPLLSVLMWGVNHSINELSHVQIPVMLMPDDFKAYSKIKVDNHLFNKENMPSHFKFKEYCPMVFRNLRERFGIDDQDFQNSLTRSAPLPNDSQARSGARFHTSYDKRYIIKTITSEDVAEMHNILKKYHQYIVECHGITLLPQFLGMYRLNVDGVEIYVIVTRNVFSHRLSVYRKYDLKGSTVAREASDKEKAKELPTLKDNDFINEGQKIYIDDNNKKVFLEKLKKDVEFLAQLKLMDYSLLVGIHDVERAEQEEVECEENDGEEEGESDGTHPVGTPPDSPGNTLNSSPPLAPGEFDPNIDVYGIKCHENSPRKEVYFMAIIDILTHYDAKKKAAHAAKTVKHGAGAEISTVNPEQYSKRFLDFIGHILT

PI5P4Kγ+ [3] = molecular target: T2, PI5P4Kγ+ (Homo sapiens, UniProt Q8TBX8, D138G/D197E/E133P/E135D/E153T/E196G/G139A/N195G/S132L/S134N); assay: biochemical
T2 sequence (Q8TBX8 with tags, fused parts or gaps INS131LPN/S132D/E133S/S134Q/E135A/G136R/D138G/G139A/E153T/N195G/E196G/D197E): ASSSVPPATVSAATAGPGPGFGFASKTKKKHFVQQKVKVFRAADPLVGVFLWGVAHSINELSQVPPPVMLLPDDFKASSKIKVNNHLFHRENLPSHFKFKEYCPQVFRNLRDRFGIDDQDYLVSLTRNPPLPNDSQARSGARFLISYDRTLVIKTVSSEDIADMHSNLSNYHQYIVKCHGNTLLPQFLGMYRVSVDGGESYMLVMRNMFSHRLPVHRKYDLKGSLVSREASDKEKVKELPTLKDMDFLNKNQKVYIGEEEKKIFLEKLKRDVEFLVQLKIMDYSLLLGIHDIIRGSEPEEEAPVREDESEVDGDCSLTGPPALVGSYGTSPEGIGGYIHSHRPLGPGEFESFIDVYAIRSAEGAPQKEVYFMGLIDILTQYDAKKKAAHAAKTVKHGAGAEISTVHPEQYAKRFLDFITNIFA

PI5P4Kγ-WT = molecular target: T3, PI5P4Kγ-WT (Homo sapiens, UniProt Q8TBX8); assay: InCELL Pulse cellular target engagement (thermal stabilisation) assay; settings: Hek293 cells stably expressing ePL-tagged PI5P4Kγ
T3 sequence (Q8TBX8 1-421): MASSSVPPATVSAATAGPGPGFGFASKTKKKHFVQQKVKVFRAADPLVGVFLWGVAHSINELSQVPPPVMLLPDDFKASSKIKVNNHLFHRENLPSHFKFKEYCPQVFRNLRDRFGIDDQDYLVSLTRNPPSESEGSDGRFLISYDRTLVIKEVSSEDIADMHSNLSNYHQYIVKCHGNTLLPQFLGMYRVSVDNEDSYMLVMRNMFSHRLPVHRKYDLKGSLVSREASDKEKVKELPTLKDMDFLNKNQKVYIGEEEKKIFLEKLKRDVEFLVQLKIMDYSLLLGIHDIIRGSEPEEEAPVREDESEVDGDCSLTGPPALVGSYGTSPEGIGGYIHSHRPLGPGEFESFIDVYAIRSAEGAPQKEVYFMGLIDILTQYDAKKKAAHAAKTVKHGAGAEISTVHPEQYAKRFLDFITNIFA

PI5P4Kβ = molecular target: T4, PI5P4Kβ (Homo sapiens, UniProt P78356); assay: PI5P4Kβ ADP-Glo kinase assay
T4 sequence (P78356 1-416): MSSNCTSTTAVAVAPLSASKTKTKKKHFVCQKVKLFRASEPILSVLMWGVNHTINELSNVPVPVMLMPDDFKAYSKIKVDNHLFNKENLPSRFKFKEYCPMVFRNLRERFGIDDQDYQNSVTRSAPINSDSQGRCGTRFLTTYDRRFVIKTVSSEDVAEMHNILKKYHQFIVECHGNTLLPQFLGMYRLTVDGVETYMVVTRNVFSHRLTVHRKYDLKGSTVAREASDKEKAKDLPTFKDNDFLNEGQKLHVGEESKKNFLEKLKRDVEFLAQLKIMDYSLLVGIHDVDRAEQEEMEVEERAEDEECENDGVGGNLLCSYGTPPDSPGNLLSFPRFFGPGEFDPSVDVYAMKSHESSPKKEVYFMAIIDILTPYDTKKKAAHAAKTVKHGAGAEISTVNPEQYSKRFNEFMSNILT

[4] = Mouse liver microsome stability; assay type: in vitro ADME; settings: mouse liver microsomes half-life; read-out: MLM t½
Description: as §1
Mouse Microsomal stability: analysis was performed by Cyprotex Discovery. Briefly, test compounds in DMSO
protein/mL) in the presence of NADPH (1 mM) at 37 °C. Aliquots were taken at time intervals (0, 5, 15, 30 and
compound remaining, allowing the determination of the half-life for the compound.

PI5P4Kα [5] = molecular target: T1, PI5P4Kα; assay: biochemical; settings: ADP-Glo pIC50 PI5P4Kα, Table S1, two decimals; asterisk not explained
MDR1 (P-gp) = assay: MDR1-MDCK bi-directional permeability and efflux; settings: dog, MDCK-MDR1
Description: as §2

PI5P4Kγ+ [6] = settings: ratio PI5P4Kα IC50 / PI5P4Kγ+ IC50, ADP-Glo
[7] = ADP-Glo pIC50 PI5P4Kγ+, Table S1, two decimals, asterisk not explained
[8] = PI5P4Kγ+ pIC50, ADP-Glo, footnote a: inconsistent replicates, value shown is upper limit

Row | Structure (SMILES) | solubility at 2 h [1] | P app (A2B) (MDCK-MDR1 cells) | PI5P4Kα pIC50 (PI5P4Kα [2]) | IC50 (PI5P4Kγ+ [3]; [7]) | IC50 (PI5P4Kγ+ [3]; [8]) | InCELL Pulse pIC50 PI5P4Kγ-WT (PI5P4Kγ-WT) | ADP-Glo pIC50 PI5P4Kβ (PI5P4Kβ) | half-life at 1 µM [4] | IC50 (PI5P4Kα [5]) | efflux ratio at 60 min, 10 µM (MDR1 (P-gp)) | Fold-selectivity (α IC50/γ IC50) (PI5P4Kγ+ [6])
1 | CS(=O)(=O)c1ccc(Nc2ncnc3sc(-c4ccccc4)cc23)cc1 [Compound 5] | 1 µM (≈ 0.381 µg/mL) | 6.23 10^−6 cm s^−1 |  |  |  |  |  |  |  |  | 
2 | Cn1cc(-c2cc3c(Nc4ccc(S(C)(=O)=O)cc4)ncnc3s2)cn1 [Compound 8] | 30 µM (≈ 11.6 µg/mL) | 2.88 10^−6 cm s^−1 | 5.2 | 36.3 nM | 39.8 nM | 6.7 | 4.9 | 73.3 min |  |  | 
3 | Cc1cnccc1-c1cc2c(Nc3ccc(S(C)(=O)=O)cc3)ncnc2s1 [Compound 10] | 30 µM (≈ 11.9 µg/mL) | 3.13 10^−6 cm s^−1 | 6.2 | 12.9 nM | 12.6 nM | 7.7 | 4.9 | 9.23 min | 708 nM |  | 
4 | Cc1ccncc1-c1cc2c(Nc3ccc(S(C)(=O)=O)cc3)ncnc2s1 [Compound 14] | 30 µM (≈ 11.9 µg/mL) | 2.45 10^−6 cm s^−1 | 6.0 | 12.3 nM | 12.6 nM |  |  | 8.2 min |  | 34.1 | 79
5 | CS(=O)(=O)c1ccc(Nc2ncnc3sc(-c4cccnc4Cl)cc23)cc1 [Compound 15] | 3 µM (≈ 1.25 µg/mL) | 4.73 10^−6 cm s^−1 | 6.2 | 12.9 nM | 12.6 nM | 7.1 | 4.9 | 383 min | 708 nM |  | 
6 | Cc1ncccc1-c1cc2c(Nc3ccc(S(C)(=O)=O)cc3)ncnc2s1 [Compound 17] | 10 µM (≈ 3.96 µg/mL) | 1.33 10^−6 cm s^−1 | 6.0 | 20.9 nM | 20 nM | 7.3 | 4.7 | 35.5 min | 1120 nM |  | 
7 | Cc1cccc(Nc2ncnc3sc(-c4cccnc4C)cc23)c1 [Compound 21] |  |  | 5.5 | 5250 nM | 5010 nM |  |  |  | 3550 nM |  | 0.63
8 | CSc1ccc(Nc2ncnc3sc(-c4cccnc4C)cc23)cc1 [Compound 25] |  |  | 6.6 | 46.8 nM | 50.1 nM |  |  |  | 282 nM |  | 5.0
9 | CSc1ccc(Nc2ncnc3sc(-c4ccncc4C)cc23)cc1 [Compound 26] | 3 µM (≈ 1.09 µg/mL) | 3.7 ^d 10^−6 cm s^−1 | 6.9 | 19.5 nM | 20 nM |  |  | 0.94 min | 135 nM |  | 
10 | COc1ccc(Nc2ncnc3sc(-c4ccncc4C)cc23)cc1 [Compound 27] |  |  | 6.2 | 661 nM | 631 nM |  |  |  | 708 nM |  | 1.1
11 | CSc1ccc(Nc2ncnc3sc(-c4cccnc4Cl)cc23)cc1 [Compound 28] |  |  | 6.6 | 18.6 nM | 20 nM |  |  |  | 229 nM |  | 12
12 | CS(=O)(=O)c1ccc(Nc2ncnc3scc(Cl)c23)cc1 [Compound 32] | 10 µM (≈ 3.4 µg/mL) | 14.2 10^−6 cm s^−1 | <6.2 |  | 50.1 nM |  |  | 51.4 min |  | 3.7 | 
13 | CS(=O)(=O)c1ccc(Nc2ncnc3cc(-c4cccnc4Cl)sc23)cc1 [Compound 37] | 10 µM (≈ 4.17 µg/mL) | 1.33 10^−6 cm s^−1 | 6.5 | 11.7 nM | 12.6 nM | 7.4 |  | 70.8 min | 355 nM |  | 
14 | CSc1ccc(Nc2ncnc3cc(-c4cccnc4Cl)sc23)cc1 [Compound 39] | 10 µM (≈ 3.85 µg/mL) | 12.9 10^−6 cm s^−1 | 7.3 | 8.71 nM | 7.94 nM | 7.3 |  | 0.44 min | 46.8 nM |  | 
15 | Cc1ncccc1-c1cc2ncnc(Nc3ccc(N4CCCC4=O)cc3)c2s1 [Compound 42] | 10 µM (≈ 4.01 µg/mL) | 3.15 10^−6 cm s^−1 | 7.0 | 8.32 nM | 7.94 nM |  |  | 5.39 min | 112 nM |  | 
